HELM strings list units from the 5' end as sugar, base in round brackets, then linkage (d deoxyribose, r ribose, m 2'-O-methyl, p phosphodiester). Strings are as the collection lists them; they lack the last nucleoside at the 3' end of the tested compound. [moe] = 2'-O-(2-methoxyethyl) (MOE); [sp] = phosphorothioate linkage; [m5C] = 5-methylcytosine

The target in the data set is SCN2A. The data set is described as follows: mouse, dose not given. The following applies: ASO.
With “RNA1{[moe](T)[sp].[moe](A)p.[moe](A)p.[moe](T)p.[moe]([m5C])p.[moe](A)p.d([m5C])[sp].d(T)[sp].d(T)[sp].d(T)[sp].d([m5C])[sp].d(A)[sp].d(T)[sp].d([m5C])[sp].d([m5C])[sp].d(A)[sp].[moe]([m5C])p.[moe](G)[sp].[moe](A)}$$$$ (last 3' nucleoside missing)”, the 3 h FOB score is 0 score 0-7.
As for “RNA1{[moe](T)[sp].[moe](A)p.[moe](A)p.[moe](T)p.[moe]([m5C])p.d(A)[sp].d([m5C])[sp].d(T)[sp].d(T)[sp].d(T)[sp].d([m5C])[sp].d(A)[sp].d(T)[sp].d([m5C])[sp].d([m5C])[sp].[moe](A)p.[moe]([m5C])p.[moe](G)[sp].[moe](A)}$$$$ (last 3' nucleoside missing)”, the figure is 0 score 0-7; as for “RNA1{[moe](T)[sp].[moe](A)p.[moe](A)p.[moe](T)p.d([m5C])[sp].d(A)[sp].d([m5C])[sp].d(T)[sp].d(T)[sp].d(T)[sp].d([m5C])[sp].d(A)[sp].d(T)[sp].d([m5C])[sp].[moe]([m5C])p.[moe](A)p.[moe]([m5C])p.[moe](G)[sp].[moe](A)}$$$$ (last 3' nucleoside missing)”, 0 score 0-7; as for “RNA1{[moe](T)[sp].[moe](A)p.[moe](T)p.[moe](T)p.[moe](T)p.d(T)[sp].d(T)[sp].d([m5C])[sp].d(T)[sp].d(A)[sp].d([m5C])[sp].d(A)[sp].d([m5C])[sp].d(T)[sp].d(G)[sp].[moe]([m5C])p.[moe](T)p.[moe](G)[sp].[moe]([m5C])}$$$$ (last 3' nucleoside missing)”, 2.67 score 0-7.
For the substance “RNA1{[moe](T)[sp].[moe](A)p.[moe](T)p.[moe](T)p.d(T)[sp].d(T)[sp].d(A)[sp].d(T)[sp].d(A)[sp].d(A)[sp].d(A)[sp].d(T)[sp].d(G)[sp].d([m5C])[sp].[moe]([m5C])p.[moe](G)p.[moe](A)p.[moe]([m5C])[sp].[moe](T)}$$$$ (last 3' nucleoside missing)”, the 3 h FOB score came to 2.67 score 0-7.
The substance “RNA1{[moe](T)[sp].[moe](A)p.[moe](T)p.[moe](T)p.d(T)[sp].d(T)[sp].d(T)[sp].d([m5C])[sp].d(T)[sp].d(A)[sp].d([m5C])[sp].d(A)[sp].d([m5C])[sp].d(T)[sp].[moe](G)p.[moe]([m5C])p.[moe](T)p.[moe](G)[sp].[moe]([m5C])}$$$$ (last 3' nucleoside missing)” yielded a 3 h FOB score of 0 score 0-7.
As for “RNA1{[moe](T)[sp].[moe](G)p.[moe](A)p.[moe]([m5C])p.[moe]([m5C])p.[moe](A)p.d([m5C])[sp].d(G)[sp].d([m5C])[sp].d(T)[sp].d(T)[sp].d(A)[sp].d([m5C])[sp].d(A)[sp].d(T)[sp].d([m5C])[sp].[moe](A)p.[moe](A)[sp].[moe](A)}$$$$ (last 3' nucleoside missing)”, the figure is 1 score 0-7; as for “RNA1{[moe](T)[sp].[moe](G)p.[moe](G)p.[moe](A)p.[moe]([m5C])p.[moe]([m5C])p.d(G)[sp].d(T)[sp].d([m5C])[sp].d(T)[sp].d([m5C])[sp].d(T)[sp].d(T)[sp].d(T)[sp].d([m5C])[sp].d(T)[sp].[moe](T)p.[moe](A)[sp].[moe](T)}$$$$ (last 3' nucleoside missing)”, 0 score 0-7.
Consider “RNA1{[moe](T)[sp].[moe](G)p.[moe](G)p.[moe](A)p.[moe]([m5C])p.d([m5C])[sp].d(G)[sp].d(T)[sp].d([m5C])[sp].d(T)[sp].d([m5C])[sp].d(T)[sp].d(T)[sp].d(T)[sp].d([m5C])[sp].[moe](T)p.[moe](T)p.[moe](A)[sp].[moe](T)}$$$$ (last 3' nucleoside missing)”, for which the 3 h FOB score amounted to 1 score 0-7.
In the case of “RNA1{[moe](T)[sp].[moe](G)p.[moe](G)p.[moe](G)p.[moe](T)p.d([m5C])[sp].d(T)[sp].d([m5C])[sp].d(T)[sp].d(T)[sp].d(A)[sp].d(G)[sp].d([m5C])[sp].d(T)[sp].d(T)[sp].[moe](T)p.[moe]([m5C])p.[moe](T)[sp].[moe]([m5C])}$$$$ (last 3' nucleoside missing)” it was 1.33 score 0-7; in that of “RNA1{[moe](T)[sp].[moe](G)p.[moe](G)p.[moe]([m5C])p.[moe](T)p.d(A)[sp].d(T)[sp].d(A)[sp].d([m5C])[sp].d(T)[sp].d([m5C])[sp].d(A)[sp].d(T)[sp].d(T)[sp].d(G)[sp].[moe]([m5C])p.[moe](T)p.[moe]([m5C])[sp].[moe](T)}$$$$ (last 3' nucleoside missing)”, 1 score 0-7.
As for “RNA1{[moe](T)[sp].[moe](G)p.[moe](T)p.[moe](A)p.[moe](A)p.[moe]([m5C])p.d([m5C])[sp].d(T)[sp].d(T)[sp].d(T)[sp].d(A)[sp].d(T)[sp].d(A)[sp].d([m5C])[sp].d(A)[sp].d(T)[sp].[moe](T)p.[moe](T)[sp].[moe](A)}$$$$ (last 3' nucleoside missing)”, the 3 h FOB score came out at 0 score 0-7.
The substance “RNA1{[moe](T)[sp].[moe](G)p.[moe](T)p.[moe](A)p.[moe](A)p.d([m5C])[sp].d([m5C])[sp].d(T)[sp].d(T)[sp].d(T)[sp].d(A)[sp].d(T)[sp].d(A)[sp].d([m5C])[sp].d(A)[sp].[moe](T)p.[moe](T)p.[moe](T)[sp].[moe](A)}$$$$ (last 3' nucleoside missing)” returned a 3 h FOB score of 0 score 0-7.
In turn, “RNA1{[moe](T)[sp].[moe](G)p.[moe](T)p.[moe](A)p.d(A)[sp].d([m5C])[sp].d([m5C])[sp].d(T)[sp].d(T)[sp].d(T)[sp].d(A)[sp].d(T)[sp].d(A)[sp].d([m5C])[sp].[moe](A)p.[moe](T)p.[moe](T)p.[moe](T)[sp].[moe](A)}$$$$ (last 3' nucleoside missing)” gave a 3 h FOB score of 0 score 0-7.
Substance “RNA1{[moe](T)[sp].[moe](G)p.[moe](T)p.[moe](T)p.[moe](T)p.d(G)[sp].d(G)[sp].d(G)[sp].d(T)[sp].d([m5C])[sp].d(T)[sp].d([m5C])[sp].d(T)[sp].d(T)[sp].d(A)[sp].[moe](G)p.[moe]([m5C])p.[moe](T)[sp].[moe](T)}$$$$ (last 3' nucleoside missing)” displayed a 3 h FOB score of 2.33 score 0-7.
In the case of “RNA1{[moe](T)[sp].[moe](G)p.[moe]([m5C])p.[moe](A)[sp].d(T)[sp].d(G)[sp].d(T)[sp].d(A)[sp].d(A)[sp].d([m5C])[sp].d([m5C])[sp].d(T)[sp].[moe](T)p.[moe](T)p.[moe](A)p.[moe](T)[sp].[moe](A)}$$$$ (last 3' nucleoside missing)”, the 3 h FOB score was 0 score 0-7.
With “RNA1{[moe](T)[sp].[moe](G)p.[moe]([m5C])p.[moe](A)p.[moe](T)[sp].d(G)[sp].d(T)[sp].d(A)[sp].d(A)[sp].d([m5C])[sp].d([m5C])[sp].d(T)[sp].d(T)[sp].[moe](T)p.[moe](A)p.[moe](T)[sp].[moe](A)}$$$$ (last 3' nucleoside missing)”, the 3 h FOB score was 0 score 0-7.
On to “RNA1{[moe](T)[sp].[moe](G)p.[moe]([m5C])p.[moe](A)p.[moe](T)p.[moe](A)p.d(A)[sp].d(T)[sp].d([m5C])[sp].d([m5C])[sp].d([m5C])[sp].d(A)[sp].d(T)[sp].d(T)[sp].d(A)[sp].d(T)[sp].[moe](A)p.[moe]([m5C])[sp].[moe](A)}$$$$ (last 3' nucleoside missing)”, for which the 3 h FOB score is 0 score 0-7.
Regarding “RNA1{[moe](T)[sp].[moe](G)p.[moe]([m5C])p.[moe](A)p.[moe](T)p.[moe](G)[sp].d(T)[sp].d(A)[sp].d(A)[sp].d([m5C])[sp].d([m5C])[sp].d(T)[sp].d(T)[sp].d(T)[sp].[moe](A)p.[moe](T)[sp].[moe](A)}$$$$ (last 3' nucleoside missing)”, the 3 h FOB score came to 0 score 0-7.
As for “RNA1{[moe](T)[sp].[moe](G)p.[moe]([m5C])p.[moe](A)p.[moe](T)p.[moe](G)p.d(T)[sp].d(A)[sp].d(A)[sp].d([m5C])[sp].d([m5C])[sp].d(T)[sp].d(T)[sp].d(T)[sp].d(A)[sp].d(T)[sp].[moe](A)p.[moe]([m5C])[sp].[moe](A)}$$$$ (last 3' nucleoside missing)”, the figure is 0 score 0-7.
In turn, “RNA1{[moe](T)[sp].[moe](G)p.[moe]([m5C])p.[moe](A)p.[moe](T)p.d(A)[sp].d(A)[sp].d(T)[sp].d([m5C])[sp].d([m5C])[sp].d([m5C])[sp].d(A)[sp].d(T)[sp].d(T)[sp].d(A)[sp].[moe](T)p.[moe](A)p.[moe]([m5C])[sp].[moe](A)}$$$$ (last 3' nucleoside missing)” registered a 3 h FOB score of 0 score 0-7.
“RNA1{[moe](T)[sp].[moe](G)p.[moe]([m5C])p.[moe](A)p.[moe](T)p.d(G)[sp].d(T)[sp].d(A)[sp].d(A)[sp].d([m5C])[sp].d([m5C])[sp].d(T)[sp].d(T)[sp].d(T)[sp].d(A)[sp].[moe](T)p.[moe](A)p.[moe]([m5C])[sp].[moe](A)}$$$$ (last 3' nucleoside missing)”: the 3 h FOB score is 1 score 0-7.
As to “RNA1{[moe](T)[sp].[moe](G)p.[moe]([m5C])p.[moe](A)p.d(T)[sp].d(A)[sp].d(A)[sp].d(T)[sp].d([m5C])[sp].d([m5C])[sp].d([m5C])[sp].d(A)[sp].d(T)[sp].d(T)[sp].[moe](A)p.[moe](T)p.[moe](A)p.[moe]([m5C])[sp].[moe](A)}$$$$ (last 3' nucleoside missing)”, the 3 h FOB score is 0 score 0-7.
For the substance “RNA1{[moe](T)[sp].[moe](G)p.[moe]([m5C])p.[moe](A)p.d(T)[sp].d(G)[sp].d(T)[sp].d(A)[sp].d(A)[sp].d([m5C])[sp].d([m5C])[sp].d(T)[sp].d(T)[sp].d(T)[sp].[moe](A)p.[moe](T)p.[moe](A)p.[moe]([m5C])[sp].[moe](A)}$$$$ (last 3' nucleoside missing)”, the 3 h FOB score was found to be 0 score 0-7.
Consider “RNA1{[moe](T)[sp].[moe](G)p.[moe]([m5C])p.[moe](T)p.[moe]([m5C])p.d(A)[sp].d([m5C])[sp].d(T)[sp].d(G)[sp].d(T)[sp].d([m5C])[sp].d([m5C])[sp].d(T)[sp].d(A)[sp].d(T)[sp].[moe](T)p.[moe](G)p.[moe](A)[sp].[moe](A)}$$$$ (last 3' nucleoside missing)”, for which the 3 h FOB score amounted to 4 score 0-7.

(Values after the OligoGym collection.)
